Values of other authors as cited in patent US10874605B2, “Extended release biodegradable ocular implants” (Allergan, Inc., priority 2004, dated 2020).

Conditions: efficacy in vivo

## C[C@]12CCC(=O)C=C1CC[C@@H]1[C@@H]2[C@@H](O)C[C@@]2(C)[C@H]1CC[C@]2(O)C(=O)CO [hydrocortisone]
  dose equivalent to a 1 mg dose of dexamethasone: 25 mg
  potency relative to dexamethasone: approximately twenty five fold less potent than dexamethasone
